Results: US20070004660A1, “Synergistic Modulation of Flt3 Kinase Using Alkylquinolines and Alkylquinazolines” (priority 2005, published 2007)

System: MV4-11 cells
Assay: Inhibition of MV4-11 cell proliferation (CellTiterGlo, 72 h)
Assay type: cell-based
Settings: Homo sapiens; 72 h growth inhibition; uncertainty ±20%
Experimental: MV4-11 cells cannot grow and survive without active FLT3ITD.
To measure proliferation inhibition by test compounds, the luciferase based CellTiterGlo reagent (Promega), which quantifies total cell number based on total cellular ATP concentration, was used. Cells are plated at 10,000 cells per well in 100 ul of in RPMI media containing penn/strep, 10% FBS and 1 ng/ml GM-CSF or 1 ng/ml IL-3 for MV4-11 and Baf3 cells respectively.
Compound dilutions or 0.1% DMSO (vehicle control) are added to cells and the cells are allowed to grow for 72 hours at standard cell growth conditions (37° C., 5% CO2). For activity measurements in MV4-11 cells grown in 50% plasma, cells were plated at 10,000 cells per well in a 1:1 mixture of growth media and human plasma (final volume of 100 μL). To measure total cell growth an equal volume of CellTiterGlo reagent was added to each well, according to the manufacturer's instructions, and luminescence was quantified. Total cell growth was quantified as the difference in luminescent counts (relative light units, RLU) of cell number at Day 0 compared to total cell number at Day 3 (72 hours of growth and/or compound treatment). One hundred percent inhibition of growth is defined as an RLU equivalent to the Day 0 reading. Zero percent inhibition was defined as the RLU signal for the DMSO vehicle control at Day 3 of growth. All data points are an average of triplicate samples. […] Inhibition and IC50 data analysis was done with GraphPad Prism using a non-linear regression fit with a multiparamater, sigmoidal dose-response (variable slope) equation.
MV4-11 cells express the FLT3 internal tandem duplication mutation, and thus are entirely dependent upon FLT3 activity for growth. […] In contrast, the Baf3 cell proliferation is driven by the cytokine IL-3 and thus are used as a non-specific toxicity control for test compounds.

Row | IC50 | SMILES
1 | 86 nM | COc1cc2ncnc(C3CCN(C(=O)Nc4ccc(C(C)C)cc4)CC3)c2cc1OC [Example 4, 4-(6,7-Dimethoxy-quinazolin-4-yl)-piperidine-1-carboxylic acid (4-isopropyl-phenyl)-amide]
2 | 280 nM | CC(C)Oc1ccc(NC(=O)N2CCC(c3ccnc4ccccc34)CC2)cc1 [Example 6, 4-Quinolin-4-yl-piperidine-1-carboxylic acid (4-isopropoxy-phenyl)-amide]
3 | 232 nM | CC(C)c1ccc(NC(=O)N2CCC(c3ncnc4ccccc34)CC2)cc1 [Example 7, 4-Quinazolin-4-yl-piperidine-1-carboxylic acid (4-isopropyl-phenyl)-amide]
4 | 533 nM | CC(C)Oc1ccc(NC(=O)N2CCC(c3ncnc4ccccc34)CC2)cc1 [Example 8, 4-Quinazolin-4-yl-piperidine-1-carboxylic acid (4-isopropoxy-phenyl)-amide]
5 | 29 nM | COc1cc2ncnc(C3CCN(CC(=O)Nc4ccc(C(C)C)cc4)CC3)c2cc1OC [Example 9, 2-[4-(6,7-Dimethoxy-quinazolin-4-yl)-piperidin-1-yl]-N-(4-isopropyl-phenyl)-acetamide]
6 | 171 nM | COc1cc2ncnc(C3CCN(CC(=O)Nc4ccc(OC(C)C)cc4)CC3)c2cc1OC [Example 10, 2-[4-(6,7-Dimethoxy-quinazolin-4-yl)-piperidin-1-yl]-N-(4-isopropoxy-phenyl)-acetamide]
7 | 460 nM | CC(C)Oc1ccc(NC(=O)N2CCC(c3ncnc4ccc(I)cc34)CC2)cc1 [Example 11, 4-(6-Iodo-quinazolin-4-yl)-piperidine-1-carboxylic acid (4-isopropoxy-phenyl)-amide]
8 | 149 nM | CC(C)Oc1ccc(NC(=O)N2CCC(c3ncnc4ccc(C#CCO)cc34)CC2)cc1 [Example 12, 4-[6-(3-Hydroxy-prop-1-ynyl)-quinazolin-4-yl]-piperidine-1-carboxylic acid (4-isopropoxy-phenyl)-amide]
9 | 59 nM | CCN(CC)CC#Cc1ccc2ncnc(C3CCN(C(=O)Nc4ccc(OC(C)C)cc4)CC3)c2c1 [Example 13, 4-[6-(3-Diethylamino-prop-1-ynyl)-quinazolin-4-yl]-piperidine-1-carboxylic acid (4-isopropoxy-phenyl)-amide]
10 | 23 nM | CC(C)Oc1ccc(NC(=O)N2CCC(c3ncnc4ccc(C#CCN5CCCCC5)cc34)CC2)cc1 [Example 14, 4-[6-(3-Piperidin-1-yl-prop-1-ynyl)-quinazolin-4-yl]-piperidine-1-carboxylic acid (4-isopropoxy-phenyl)-amide]
11 | 197 nM | CCCCc1ccc(NC(=O)N2CCC(c3ncnc4cc(OC)c(OC)cc34)CC2)cc1 [Example 43, 4-(6,7-Dimethoxy-quinazolin-4-yl)-piperidine-1-carboxylic acid (4-butyl-phenyl)-amide]
12 | 725 nM | CCOc1ccc(NC(=O)N2CCC(c3ncnc4cc(OC)c(OC)cc34)CC2)cc1 [Example 44, 4-(6,7-Dimethoxy-quinazolin-4-yl)-piperidine-1-carboxylic acid (4-ethoxy-phenyl)-amide]
13 | 16700 nM | COc1cc2ncnc(C3CCN(C(=O)Nc4ccccc4)CC3)c2cc1OC [Example 45, 4-(6,7-Dimethoxy-quinazolin-4-yl)-piperidine-1-carboxylic acid phenylamide]
14 | 122 nM | COc1cc2ncnc(C3CCN(C(=O)Nc4ccc(Oc5ccccc5)cc4)CC3)c2cc1OC [Example 47, 4-(6,7-Dimethoxy-quinazolin-4-yl)-piperidine-1-carboxylic acid (4-phenoxy-phenyl)-amide]
15 | 306 nM | COc1cc2ncnc(C3CCN(C(=O)Nc4ccc(OC(F)F)cc4)CC3)c2cc1OC [Example 51, 4-(6,7-Dimethoxy-quinazolin-4-yl)-piperidine-1-carboxylic acid (4-difluoromethoxy-phenyl)-amide]
16 | 7 nM | CCC(C)c1ccc(NC(=O)N2CCC(c3ncnc4cc(OC)c(OC)cc34)CC2)cc1 (stereo not shown) [Example 52, 4-(6,7-Dimethoxy-quinazolin-4-yl)-piperidine-1-carboxylic acid (4-sec-butyl-phenyl)-amide]
